For test [1], the system named is cleaved PARP and cleaved Caspase 3. Nature of the test: Western blot of apoptotic markers. Type of test: cell-based, human. Conditions: compared to WS6 treatment at IC50 concentration; no changes in Bcl-2 or Bax. The procedure:
Protein was extracted from cell pellets using RIPA buffer (Sigma) with 10% protease inhibitor (Sigma, Sydney, Australia). Quantification of proteins was conducted using Pierce BCA protein assay kit (Thermo Scientific), according to manufacturer’s instructions. A total of 30–50 μg protein samples were loaded onto Criterion TGX 10% precast gel (Bio-Rad) or NuPAGE™ 4–12% Mini Protein Gel (Invitrogen, Life technologies) and transferred to a nitrocellulose membrane (Bio-Rad). […] Quantification of protein expression was measured by Image Lab software (Bio-Rad) and normalised to loading control.
To determine if the drug effects led to apoptosis, we stained cells with annexin-V/7-AAD, a marker of early and late apoptotic events (Figure 2D). […] To confirm the apoptotic status of the cells, protein expression of key apoptotic markers PARP/Cleaved PARP, Caspase 3/Cleaved caspase 3, BCL2, and Bax was measured (Figure 2E).

Test [2] has as its system SK-N-BE(2)-C shMYCN cells. Nature of the test: Alamar Blue viability, Dox-inducible SK-N-BE(2)-C shMYCN cells. Type of test: cell-based. Conditions: Homo sapiens, 72 h, 72 h treatment. From the text: The MYCN amplified neuroblastoma cell line SK-N-BE(2)-C was kindly provided by Professor June Biedler (Memorial Sloan Kettering Cancer Centre, New York, NY, USA), and Kelly was obtained from European Collection of Cell Cultures. The two normal lung fibroblast cell lines (MRC-5 and WI-38) were purchased from ATCC. SK-N-BE(2)-C shMYCN#2 doxycycline-inducible cell and Kelly shMYCN#2 doxycycline-inducible cell were custom-made by GenScript (Piscataway, NJ, USA). SK-N-BE(2)-C, SK-N-BE(2)-C shMYCN#2, and SHEP MYCN3 doxycycline-inducible cells were maintained in Dulbecco’s modified Eagle’s medium (DMEM) (Invitrogen, Life Technologies, Waltham, MA, USA) with 10% foetal calf serum (FCS). Kelly and Kelly shMYCN#2 doxycycline-inducible cell were cultured in Roswell Park Memorial Institute (RPMI) 1640 (Invitrogen, Life Technologies) with 10% FCS. MRC-5 and WI-38 were cultured in Alpha-MEM media (Invitrogen, Life Technologies) with 10% FCS. All cells were not cultured for more than 2 months. All used cell lines were authenticated by Cell Bank Australia (Westmead, NSW, Australia) as being free from mycoplasma, and cultured at 37 °C and 5% CO2 in a humidifier incubator.
Cell viability was determined by the Alamar Blue assay (75 mg resazurin, 12.5 mg methylene blue, 164.5 mg potassium hexacyanoferrate (III), 211 mg potassium hexacyanoferrate (II) trihydrate in 500 mL of phosphate buffered saline). After 6 h incubation with Alamar Blue, the change of fluorescence was measured by Victor 3 multilabel Plate Reader (Perkin Elmer Australia, Melburne, Australia) at an excitation wavelength of 560 nm and an emission wavelength of 590 nm.
Next, we examined whether #5333 and #5338 treatment for 48 h affected the levels of WS6 target proteins, PA2G4, and MYCN in neuroblastoma cells. […] To determine the specificity of #5333 and #5338 for MYCN, we used two different doxycycline (Dox)-inducible neuroblastoma cell systems for repression of MYCN expression: shMYCN SK-N-BE(2)-C (MYCN-amplified) and shMYCN Kelly (MYCN-amplified) cell lines. Cell viability was measured following #5333 and #5338 treatments for 48–72 h. […] In addition, the specificity and efficacy of #5333 and #5338 were also tested in MYCN non-amplified SHEP MYCN3 cell lines with Dox-inducible MYCN induction. Cell viability was measured following #5333, #5338, or WS6 treatments for 72 h.
Figure 3 Compounds #5333 and #5338 functionally interact with MYCN and PA2G4 in neuroblastoma cells. (A) Western blot showing a decrease in protein expression due to #5333 or #5338 drug treatment. (B) Alamar Blue assays comparing cell viability of SK-N-BE(2)-C after Doxycycline (Dox)-inducible MYCN knockdown, followed by 72 h treatment with #5333 or #5338. […]

[3] abbreviates: Dox (2 μg/ml) +, MYCN - (knockdown).

In the case of `Cc1cccc(Oc2cc(N3CCC(C(=O)N[C@@H](C)CCc4ccccc4)CC3)ncn2)c1C` [#5338], the “expression of cleaved PARP and cleaved Caspase 3” value in test [1] is listed as “increased”. Also, the IC50 in test [2] (setting [3]) amounted to 32.3 µM; in test [2] (Dox (2 μg/ml) -, MYCN +) it was 24.1 µM.
In the case of `Cc1cccc(Oc2cc(N3CCC(C(=O)NCc4cccc(Br)c4)CC3)ncn2)c1C` [#5333], in test [1], the “expression of cleaved PARP and cleaved Caspase 3” value is “increased”. Besides, the IC50 in test [2] (setting [3]) is 46.6 µM; in test [2] (Dox (2 μg/ml) -, MYCN +) it was 25.2 µM.
